In US20060241177A1, “Novel compounds, pharmaceutical compositions containing same, and methods of use for same” (priority 2002, published 2006):
Converted amounts (≈) assume the structure as drawn.

Experiments:
purified human FAS = biological target: T1, purified human FAS (Homo sapiens, UniProt P49327); test: Measurement of FAS enzymatic activity (NADPH oxidation) and IC50; type: biochemical; details: purified human FAS from ZR-75-1 cells, malonyl-CoA dependent NADPH oxidation
T1 construct: Human FAS was purified from cultured ZR-75-1 human breast cancer cells; endogenous in cells; host or cells: ZR-75-1 human breast cancer cells (ATCC); endogenous enzyme purified by PEG precipitation and Mono Q chromatography
Experimental: Human FAS was purified from cultured ZR-75-1 human breast cancer cells obtained from the American Type Culture Collection. The procedure, adapted from Linn et al., 1981, and Kuhajda et al, 1994, utilizes hypotonic lysis, successive polyethyleneglycol (PEG) precipitations, and anion exchange chromatography. ZR-75-1 cells are cultured at 37° C. with 5% CO2 in RPMI culture medium with 10% fetal bovine serum, penicillin and streptomycin.
Ten T150 flasks of confluent cells are lysed with 1.5 ml lysis buffer (20 mM Tris-HCl pH 7.5, 1 mM EDTA, 0.1 mM phenylmethanesulfonyl fluoride (PMSF), 0.1% Igepal CA-630) and dounce homogenized on ice for 20 strokes. The lysate is centrifuged in JA-20 rotor (Beckman) at 20,000 rpm for 30 minutes at 4° C. and the supernatant is brought to 42 ml with lysis buffer. A solution of 50% PEG 8000 in lysis buffer is added slowly to the supernatant to a final concentration of 7.5%. After rocking for 60 minutes at 4° C., the solution is centrifiged in JA-20 rotor (Beckman) at 15,000 rpm for 30 minutes at 4° C. Solid PEG 8000 is then added to the supernatant to a final concentration of 15%. After the rocking and centrifugation is repeated as above, the pellet is resuspended overnight at 4° C. in 10 ml of Buffer A (20 mM K2HPO4, pH 7.4). After 0.45 μM filtration, the protein solution is applied to a Mono Q 5/5 anion exchange column (Pharmacia). The column is washed for 15 minutes with buffer A at 1 ml/minute, and bound material is eluted with a linear 60-ml gradient over 60 minutes to 1 M KCl. FAS (MW˜270 kD) typically elutes at 0.25 M KCl in three 0.5 ml fractions identified using 4-15% SDS-PAGE with Coomassie G250 stain (Bio-Rad). FAS protein concentration is determined using the Coomassie Plus Protein Assay Reagent (Pierce) according to manufacturer's specifications using BSA as a standard This procedure results in substantially pure preparations of FAS (>95%) as judged by Coomassie-stained gels.
Measurement of FAS Enzymatic Activity and Determination of the IC50 of the Compounds
FAS activity is measured by monitoring the malonyl-CoA dependent oxidation of NADPH spectrophotometrically at OD340 in 96-well plates (Dils et al and Arslanian et at, 1975). Each well contains 2 μg purified FAS, 100 mM K2HPO4, pH 6.5, 1 mM dithiothreitol (Sigma), and 187.5 μM β-NADPH (Sigma). Stock solutions of inhibitors are prepared in DMSO at 2, 1, and 0.5 mg/ml resulting in final concentrations of 20, 10, and 5 μg/ml when 1 μl of stock is added per well. For each experiment, cerulenin (Sigma) is run as a positive control along with DMSO controls, inhibitors, and blanks (no FAS enzyme) all in duplicate.
The assay is performed on a Molecular Devices SpectraMax Plus Spectrophotometer. The plate containing FAS, buffers, inhibitors, and controls are placed in the spectrophotometer heated to 37° C. Using the kinetic protocol, the wells are blanked on duplicate wells containing 100 μl of 100 mM K2HPO4, pH 6.5 and the plate is read at OD340 at 10 sec intervals for 5 minutes to measure any malonyl-CoA independent oxidation of NADPH. The plate is removed from the spectrophotometer and malonyl-CoA (67.4 μM, final concentration per well) and acetyl-CoA (61.8 μM, final concentration per well) are added to each well except to the blanks. The plate is read again as above with the kinetic protocol to measure the malonyl-CoA dependent NADPH oxidation. The difference between the Δ OD340 for the malonyl-CoA dependent and non-malonyl-CoA dependent NADPH oxidation is the specific FAS activity. Because of the purity of the FAS preparation, non-malonyl-CoA dependent NADPH oxidation is negligible.
The IC50 for the compounds against FAS is determined by plotting the Δ OD340 for each inhibitor concentration tested, performing linear regression and computing the best-fit line, r^2 values, and 95% confidence intervals. The concentration of compound yielding 50% inhibition of FAS is the IC50. […]

[1] = test system: MCF-7 human breast cancer cells; test: Crystal violet cell growth assay; type: cell-based; details: MCF7, MCF-7 cells, 72 hours, read-out: Cr. Violet (IC50)
Experimental: Crystal Violet Cell Growth Assay
The crystal violet assay measures cell growth but not cytotoxicity. This assay employs crystal violet staining of fixed cells in 96-well plates with subsequent solubilization and measurement of OD490 on a spectrophotometer. The OD490 corresponds to cell growth per unit time measured. Cells are treated with the compounds of interest or vehicle controls and IC50 for each compound is computed.
To measure the cytotoxicity of specific compounds against cancer cells, 5×10^4 MCF-7 human breast cancer cells, obtained from the American Type Culture Collection are plated per well in 24 well plates in DMEM medium with 10% fetal bovine serum, penicillin, and streptomycin. Following overnight culture at 37° C. and 5% CO2, the compounds to be tested, dissolved in DMSO, are added to the wells in 1 μl volume at the following concentrations: 50, 40, 30, 20, and 10 μg/ml in triplicate. Additional concentrations are tested if required. 1 μl of DMSO is added to triplicate wells as the vehicle control. C75 is run at 10, and 5 μg/ml in triplicate as positive controls.
After 72 hours of incubation, cells are stained with 0.5 ml of Crystal Violet stain (0.5% in 25% methanol) in each well. After 10 minutes, wells are rinsed, air dried, and then solubilized with 0.5 ml 10% sodium dodecylsulfate with shaking for 2 hours. Following transfer of 100 μl from each well to a 96-well plate, plates are read at OD490 on a Molecular Devices SpectraMax Plus Spectrophotometer Average OD490 values are computed using SOFTmax Pro Software (Molecular Devices) and IC50 values are determined by linear regression analysis using Prism version 3.02 (Graph Pad Software, San Diego).

T1 sequence (P49327 whole entry): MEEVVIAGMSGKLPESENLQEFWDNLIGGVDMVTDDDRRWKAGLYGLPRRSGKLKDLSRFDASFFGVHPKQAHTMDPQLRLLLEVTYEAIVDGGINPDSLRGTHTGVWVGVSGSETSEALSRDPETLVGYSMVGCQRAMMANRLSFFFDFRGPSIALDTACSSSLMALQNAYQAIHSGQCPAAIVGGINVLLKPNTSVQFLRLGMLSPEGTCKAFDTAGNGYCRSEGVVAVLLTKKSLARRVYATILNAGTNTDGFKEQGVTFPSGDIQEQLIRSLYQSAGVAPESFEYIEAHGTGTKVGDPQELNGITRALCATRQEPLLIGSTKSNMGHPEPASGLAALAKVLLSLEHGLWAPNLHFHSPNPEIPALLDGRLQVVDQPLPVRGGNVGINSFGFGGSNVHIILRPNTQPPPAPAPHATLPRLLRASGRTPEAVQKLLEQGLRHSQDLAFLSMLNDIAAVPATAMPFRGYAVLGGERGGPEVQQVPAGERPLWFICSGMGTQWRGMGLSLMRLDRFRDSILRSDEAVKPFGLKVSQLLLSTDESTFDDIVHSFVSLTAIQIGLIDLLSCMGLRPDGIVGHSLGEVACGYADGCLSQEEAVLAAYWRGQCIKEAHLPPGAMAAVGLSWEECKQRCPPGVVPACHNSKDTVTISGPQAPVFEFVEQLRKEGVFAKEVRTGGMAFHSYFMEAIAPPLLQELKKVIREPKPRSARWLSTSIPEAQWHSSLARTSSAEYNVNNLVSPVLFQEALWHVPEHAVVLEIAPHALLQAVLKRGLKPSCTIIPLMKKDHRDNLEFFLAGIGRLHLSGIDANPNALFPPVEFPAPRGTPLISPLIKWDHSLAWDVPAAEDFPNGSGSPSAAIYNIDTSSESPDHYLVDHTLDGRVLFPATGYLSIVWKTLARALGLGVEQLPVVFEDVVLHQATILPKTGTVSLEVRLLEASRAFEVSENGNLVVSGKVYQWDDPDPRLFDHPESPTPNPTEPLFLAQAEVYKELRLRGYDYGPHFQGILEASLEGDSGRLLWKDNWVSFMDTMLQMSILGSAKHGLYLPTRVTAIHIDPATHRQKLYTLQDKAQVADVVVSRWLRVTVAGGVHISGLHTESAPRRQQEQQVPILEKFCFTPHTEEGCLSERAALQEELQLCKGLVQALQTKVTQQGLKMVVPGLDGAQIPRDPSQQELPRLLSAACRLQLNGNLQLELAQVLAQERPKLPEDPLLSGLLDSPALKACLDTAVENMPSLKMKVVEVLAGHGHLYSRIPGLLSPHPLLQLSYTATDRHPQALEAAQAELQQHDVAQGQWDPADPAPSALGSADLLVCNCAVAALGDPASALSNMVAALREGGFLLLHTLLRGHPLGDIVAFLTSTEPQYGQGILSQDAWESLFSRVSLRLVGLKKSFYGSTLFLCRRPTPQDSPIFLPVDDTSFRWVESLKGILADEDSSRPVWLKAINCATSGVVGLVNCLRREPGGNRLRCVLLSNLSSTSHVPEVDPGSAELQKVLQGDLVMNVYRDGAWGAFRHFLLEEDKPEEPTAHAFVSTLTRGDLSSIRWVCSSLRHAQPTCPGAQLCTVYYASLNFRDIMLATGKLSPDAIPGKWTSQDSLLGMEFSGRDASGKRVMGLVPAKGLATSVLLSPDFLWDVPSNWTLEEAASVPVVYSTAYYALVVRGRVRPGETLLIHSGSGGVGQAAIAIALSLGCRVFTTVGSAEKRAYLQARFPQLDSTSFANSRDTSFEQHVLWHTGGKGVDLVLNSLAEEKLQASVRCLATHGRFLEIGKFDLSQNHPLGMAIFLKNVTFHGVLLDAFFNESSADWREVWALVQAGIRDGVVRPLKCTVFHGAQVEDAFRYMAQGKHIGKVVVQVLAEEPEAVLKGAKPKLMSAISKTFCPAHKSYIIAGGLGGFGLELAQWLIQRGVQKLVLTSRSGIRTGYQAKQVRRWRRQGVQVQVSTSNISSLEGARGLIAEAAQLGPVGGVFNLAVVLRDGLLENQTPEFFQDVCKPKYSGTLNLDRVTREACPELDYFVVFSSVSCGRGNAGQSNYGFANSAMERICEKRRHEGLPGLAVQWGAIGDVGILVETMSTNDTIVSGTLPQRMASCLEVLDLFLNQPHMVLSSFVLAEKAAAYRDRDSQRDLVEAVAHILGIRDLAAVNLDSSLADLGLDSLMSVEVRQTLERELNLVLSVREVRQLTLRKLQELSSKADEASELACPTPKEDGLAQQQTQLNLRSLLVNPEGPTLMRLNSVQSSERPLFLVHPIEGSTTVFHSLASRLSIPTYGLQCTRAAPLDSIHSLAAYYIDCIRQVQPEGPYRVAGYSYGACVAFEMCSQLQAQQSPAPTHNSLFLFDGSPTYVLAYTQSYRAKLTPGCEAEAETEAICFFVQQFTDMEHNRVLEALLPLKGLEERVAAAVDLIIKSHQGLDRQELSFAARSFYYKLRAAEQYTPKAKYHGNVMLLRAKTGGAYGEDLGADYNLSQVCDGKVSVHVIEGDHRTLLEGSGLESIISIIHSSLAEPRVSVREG

Compound	IC50 (purified human FAS) [µM]	IC50 [1] [µg/mL]	FAS (IC50) (purified human FAS)
C=CCNC(=O)[C@H]1[C@H](CCCCCCCC)OC(=O)[C@@H]1C (racemic)	450	30 (≈ 102 µM)	–
C=C1C(=O)O[C@@H](CCCCCCCC)[C@@H]1C(=O)NCCO (racemic)	–	2.2 ± 1 (≈ 7.4 µM)	Neg
C=CCNC(=O)[C@@H]1C(=C)C(=O)O[C@H]1CCCC (racemic)	451	2.2 ± 0.3 (≈ 9.27 µM)	–
C=CCNC(=O)[C@@H]1C(=C)C(=O)O[C@H]1CCCCCCCC (racemic)	–	0.9 ± 0.5 (≈ 3.07 µM)	Neg
C=CCNC(=O)[C@@H]1C(=C)C(=O)O[C@H]1CCCCCC (racemic)	305	0.85 ± 0.08 (≈ 3.2 µM)	–
CCCCCCCCC1OC(=O)[C@@H](C)[C@H]1C(=O)O (stereo partly shown)	–	> 50	Neg
C=CCNC(=O)C1=C(C)C(=O)O[C@H]1CCCCCCCC	317	23.7 (≈ 80.8 µM)	–
C=CCNC(=O)[C@H]1[C@H](CCCCCCCC)OC(=O)[C@H]1C (racemic)	–	43.9 ± 4.8 (≈ 149 µM)	Neg
C=C1C(=O)O[C@@H](CCCCCCCC)[C@@H]1C(=O)NCC(=O)O (racemic)	–	> 50	Neg
CCCCCCCCC1OC(=O)[C@H](C)[C@H]1C(=O)O (stereo partly shown)	–	49 (≈ 191 µM)	Neg
C=C1C(=O)O[C@@H](CCCCCCCC)[C@@H]1C(=O)NCC(=O)OC (racemic)	–	1.3 ± 0.09 (≈ 4 µM)	Neg
